Test results published in publication PMC4948680 (European journal of pharmaceutical sciences : official …, 2016).

Experiment: in vivo
Parameters: species or system Swiss albino mice
Details: mouse; for tissue uptake at 0.5 h / tissue uptake at 1 h / tissue uptake at 4 h / tissue uptake at 48 h / tissue uptake at 72 h / tissue uptake at 24 h: Swiss albino, iv, 10 pmol peptide, total radioactivity, %ID/g tissue
Protocol: Samples of blood and tissues of interest were excised, weighted and counted for radioactivity in the gamma counter (automated well-type multi-sample gamma counter; NaI(Tl) 3'' crystal, Canberra Packard Auto-Gamma 5000 series instrument). Data was calculated as percent injected dose per gramtissue (%ID/g) with the aid of suitable standards of the injected dose. Statistical analysis using the unpaired two-tailed Student's t-test was performed to compare values between A431-CCK2R(+) and A431-CCK2R(-) tumours, as well as kidney, stomach and A431-CCK2R(+) tumour values between 4 h control and gelofusine-treated animal groups; values P < 0.05 were considered statistically significant (Table 2). The pharmacokinetic profile was determined by fitting an exponential curve through the organ time-activity data according to the least-squares method. The number of exponentials in the fitted curve was analysed according to the […] Information Criterion (AICc). All fitting was performed with Graphpad Prism version 5.

CSCC[C@H](NC(=O)[C@H](Cc1c[nH]c2ccccc12)NC(=O)CNC(=O)[C@H](Cc1ccc(O)cc1)NC(=O)[C@H](C)NC(=O)[C@@H](CCC(=O)O)NC(=O)[C@@H](CCC(=O)O)NC(=O)[C@@H](CCC(=O)O)NC(=O)[C@@H](CCC(=O)O)NC(=O)[C@@H](CCC(=O)O)NC(=O)[C@@H](CCC(=O)O)NC(=O)CN1CCN(CC(=O)O)CCN(CC(=O)O)CCN(CC(=O)O)CC1)C(=O)N[C@@H](CC(=O)O)C(=O)N[C@@H](Cc1ccccc1)C(N)=O [^111In-CP04, ^111In-DOTA-(DGlu)6-Ala-Tyr-Gly-Trp-Met-Asp-Phe-NH2, metal not drawn]
tissue uptake at 0.5 h (Blood): 1.74 ± 0.22 %ID/g | tissue uptake at 1 h (Blood): 0.51 ± 0.14 %ID/g | tissue uptake at 4 h (Blood): 0.02 ± 0.01 %ID/g | tissue uptake at 48 h (Blood): 0.01 ± 0.01 %ID/g | tissue uptake at 72 h (Blood): 0.01 ± 0.01 %ID/g | tissue uptake at 0.5 h (Femur): 4.62 ± 1.24 %ID/g | tissue uptake at 1 h (Femur): 2.62 ± 0.42 %ID/g | tissue uptake at 4 h (Femur): 0.96 ± 0.18 %ID/g | tissue uptake at 24 h (Femur): 0.53 ± 0.04 %ID/g | tissue uptake at 48 h (Femur): 0.55 ± 0.11 %ID/g | tissue uptake at 72 h (Femur): 0.49 ± 0.06 %ID/g | tissue uptake at 0.5 h (Heart): 0.7 ± 0.1 %ID/g | tissue uptake at 4 h (Heart): 0.03 ± 0.01 %ID/g | tissue uptake at 24 h (Heart): 0.02 ± 0.01 %ID/g | tissue uptake at 48 h (Heart): 0.02 ± 0.01 %ID/g | tissue uptake at 72 h (Heart): 0.03 ± 0.02 %ID/g | tissue uptake at 0.5 h (Intestines): 0.82 ± 0.14 %ID/g | tissue uptake at 1 h (Intestines): 0.39 ± 0.12 %ID/g | tissue uptake at 4 h (Intestines): 1.05 ± 0.35 %ID/g | tissue uptake at 48 h (Intestines): 0.08 ± 0.02 %ID/g | tissue uptake at 72 h (Intestines): 0.09 ± 0.04 %ID/g | tissue uptake at 0.5 h (Kidneys): 9.8 ± 2.07 %ID/g | tissue uptake at 1 h (Kidneys): 8.84 ± 2.05 %ID/g | tissue uptake at 4 h (Kidneys): 7.9 ± 1.98 %ID/g | tissue uptake at 24 h (Kidneys): 3.61 ± 0.31 %ID/g | tissue uptake at 48 h (Kidneys): 2.81 ± 0.63 %ID/g | tissue uptake at 72 h (Kidneys): 2.62 ± 0.24 %ID/g | tissue uptake at 0.5 h (Liver): 0.77 ± 0.11 %ID/g | tissue uptake at 1 h (Liver): 0.32 ± 0.15 %ID/g | tissue uptake at 24 h (Liver): 0.06 ± 0.01 %ID/g | tissue uptake at 48 h (Liver): 0.06 %ID/g | tissue uptake at 72 h (Liver): 0.05 ± 0.01 %ID/g | tissue uptake at 0.5 h (Lung): 1.05 ± 0.1 %ID/g | tissue uptake at 1 h (Lung): 0.4 ± 0.1 %ID/g | tissue uptake at 4 h (Lung): 0.06 ± 0.01 %ID/g | tissue uptake at 24 h (Lung): 0.03 ± 0.01 %ID/g | tissue uptake at 48 h (Lung): 0.02 ± 0.01 %ID/g | tissue uptake at 72 h (Lung): 0.03 ± 0.01 %ID/g | tissue uptake at 0.5 h (Muscle): 0.59 ± 0.1 %ID/g | tissue uptake at 4 h (Muscle): 0.04 ± 0.02 %ID/g | tissue uptake at 24 h (Muscle): 0.02 ± 0.01 %ID/g | tissue uptake at 48 h (Muscle): 0.03 ± 0.02 %ID/g | tissue uptake at 72 h (Muscle): 0.03 ± 0.02 %ID/g | tissue uptake at 0.5 h (Pancreas): 0.67 ± 0.08 %ID/g | tissue uptake at 4 h (Pancreas): 0.1 ± 0.01 %ID/g | tissue uptake at 24 h (Pancreas): 0.05 ± 0.01 %ID/g | tissue uptake at 48 h (Pancreas): 0.04 ± 0.01 %ID/g | tissue uptake at 72 h (Pancreas): 0.06 ± 0.03 %ID/g | tissue uptake at 0.5 h (Spleen): 0.36 ± 0.04 %ID/g | tissue uptake at 4 h (Spleen): 0.05 ± 0.01 %ID/g | tissue uptake at 24 h (Spleen): 0.04 ± 0.01 %ID/g | tissue uptake at 48 h (Spleen): 0.03 ± 0.01 %ID/g | tissue uptake at 72 h (Spleen): 0.04 ± 0.01 %ID/g | tissue uptake at 0.5 h (Stomach): 4.88 ± 0.85 %ID/g | tissue uptake at 1 h (Stomach): 2.99 ± 0.55 %ID/g | tissue uptake at 4 h (Stomach): 2.61 ± 0.82 %ID/g | tissue uptake at 24 h (Stomach): 1.48 ± 0.55 %ID/g | tissue uptake at 48 h (Stomach): 1.26 ± 0.26 %ID/g | tissue uptake at 72 h (Stomach): 0.92 ± 0.04 %ID/g | gastrointestinal tract clearance: 2.5% | total body clearance T1/2, fast component (90%): 17 min | total body clearance, fraction of fast component: 90% | total body clearance, fraction of slow component: 10%
